Legend:
[1] = biological target: human farnesyltransferase (FTase) (Homo sapiens, UniProt P49354+P49356); assay: FTase inhibitory assay (fluorescence, Dansyl-GCVLS); type: biochemical; conditions: for % FTI: inhibition of human FTase at 100 μM of tested compound, mean of two experiments; for IC50: human FTase in vitro
Description: With 40 new products in hand, the determination of their inhibitory activity on human farnesyl-transferase (FTase) in vitro was first undertaken. Dimethyl sulfoxide (DMSO) was used as the negative control, and Chaetomellic acid A was the positive reference in all assays. At the outset, and in order to select only significant results, products with an inhibitory power greater than 60% at an initial screening concentration of 100 µM were retained for the determination of their IC50 and, therefore, for further discussion. Moreover, given the number of products tested, they are grouped into three subfamilies on the basis of the degree of the sulphur atom oxidation (series of sulfides, series of sulfoxides, and series of sulfones), and the results obtained are grouped in Table 1, Table 2 and Table 3.
3.3. FTase Inhibitory Assay
Assays were realized in 96-well plates, prepared with a Biomek NKMC and a Biomek 3000 from Beckman Coulter, and read on a Wallac Victor fluorimeter from PerkinElmer. Per well, 20 µL of farnesyl pyrophosphate (10 μM) was added to 180 µL of a solution containing 2 µL of varied concentrations of potential inhibitors (dissolved in DMSO) and 178 μL of a solution composed of 10 μL of partially purified recombinant human FTase (15 µg mL^−1) and 1.0 µL of Dansyl-GCVLS peptide (in the following buffer: 5.6 mM DTT, 5.6 mM MgCl2, 12 μM ZnCl2 and 0.2% (w/v) octyl-β-D-glucopyranoside, 52 mM Tris/HCl, pH 7.5). Fluorescence was recorded for 15 min (0.7 s per well, 20 repeats) at 30 °C with an excitation filter at 340 nm and an emission filter of 486 nm. Each measurement was reproduced twice, in duplicate. The kinetic experiments were realized under the same conditions, either with FPP as varied substrate with a constant concentration of Dns-GCVLS of 2.5 μM or with Dns-GCVLS as varied substrate with a constant concentration of FPP of 10 μM. Non-linear regressions were performed using the Excel software.

RPMI-8226 (Leukemia) = assay: NCI one dose, RPMI-8226; type: cell-based, human; conditions: RPMI-8226, 1.00E-5 Molar one dose
Description: (§1) 3.4. Cell Proliferation Assay
(§2) Selected compounds were tested on a panel of 60 human cancer cell lines at the National Cancer Institute (NCI), Germantown, MD, USA. The cytotoxicity studies were conducted using a 48 h exposure protocol using the sulfo-rhodamine B assay.

[2] = system: HOP-62 (Non-Small Cell Lung Cancer); assay: NCI one dose, HOP-62; type: cell-based, human; conditions: HOP-62, 1.00E-5 Molar one dose
Description: as §1, §2

[3] = system: NCI-H522 non-small cell lung cancer cells; assay: NCI cell proliferation, NCI-H522; type: cell-based, human; conditions: for inhibition at 10 µM: Homo sapiens, NCI-H522, read-out: % Cancer cell growth Inhibition (NCI-H522); for Growth Percent: NCI-H522, 1.00E-5 Molar one dose
Description: as §1, §2

HCC-2998 (Colon Cancer) = assay: NCI one dose, HCC-2998; type: cell-based, human; conditions: HCC-2998, 1.00E-5 Molar one dose
Description: as §1, §2

SW-620 (Colon Cancer) = assay: NCI one dose, SW-620; type: cell-based, human; conditions: SW-620, 1.00E-5 Molar one dose
Description: as §1, §2

SF-268 (CNS Cancer) = assay: NCI one dose, SF-268; type: cell-based, human; conditions: SF-268, 1.00E-5 Molar one dose
Description: as §1, §2

SNB-75 (CNS Cancer) = assay: NCI one dose, SNB-75; type: cell-based, human; conditions: SNB-75, 1.00E-5 Molar one dose
Description: as §1, §2

LOX IMVI (Melanoma) = assay: NCI one dose, LOX IMVI; type: cell-based, human; conditions: 1.00E-5 Molar one dose
Description: as §1, §2

MDA-MB-435 (Melanoma) = assay: NCI one dose, MDA-MB-435; type: cell-based, human; conditions: MDA-MB-435, 1.00E-5 Molar one dose
Description: as §1, §2

SK-MEL-28 (Melanoma) = assay: NCI one dose, SK-MEL-28; type: cell-based, human; conditions: SK-MEL-28, 1.00E-5 Molar one dose
Description: as §1, §2

UACC-257 melanoma cells = assay: NCI one dose, UACC-257; type: cell-based, human; conditions: UACC-257, 1.00E-5 Molar one dose
Description: as §1, §2

OVCAR-3 (Ovarian Cancer) = assay: NCI one dose, OVCAR-3; type: cell-based, human; conditions: OVCAR-3, 1.00E-5 Molar one dose
Description: as §1, §2

[4] = system: NCI/ADR-RES (Ovarian Cancer); assay: NCI one dose, NCI/ADR-RES; type: cell-based, human; conditions: 1.00E-5 Molar one dose
Description: as §1, §2

SK-OV-3 (Ovarian Cancer) = assay: NCI one dose, SK-OV-3; type: cell-based, human; conditions: SK-OV-3, 1.00E-5 Molar one dose
Description: as §1, §2

CAKI-1 (Renal Cancer) = assay: NCI one dose, CAKI-1; type: cell-based, human; conditions: CAKI-1, 1.00E-5 Molar one dose
Description: as §1, §2

SN12C (Renal Cancer) = assay: NCI one dose, SN12C; type: cell-based, human; conditions: 1.00E-5 Molar one dose
Description: as §1, §2

TK-10 (Renal Cancer) = assay: NCI one dose, TK-10; type: cell-based, human; conditions: TK-10, 1.00E-5 Molar one dose
Description: as §1, §2

UO-31 renal cancer cells = assay: NCI one dose, UO-31; type: cell-based, human; conditions: UO-31, 1.00E-5 Molar one dose
Description: as §1, §2

PC-3 (Prostate Cancer) = assay: NCI one dose, PC-3; type: cell-based, human; conditions: PC-3, 1.00E-5 Molar one dose
Description: as §1, §2

DU-145 (Prostate Cancer) = assay: NCI one dose, DU-145; type: cell-based, human; conditions: DU-145, 1.00E-5 Molar one dose
Description: as §1, §2

MCF7 (Breast Cancer) = assay: NCI one dose, MCF7; type: cell-based, human; conditions: MCF7, 1.00E-5 Molar one dose
Description: as §1, §2

BT-549 (Breast Cancer) = assay: NCI one dose, BT-549; type: cell-based, human; conditions: BT-549, 1.00E-5 Molar one dose
Description: as §1, §2

[5] = system: MDA-MB-468 breast cancer cells; assay: NCI one dose, MDA-MB-468; type: cell-based, human; conditions: MDA-MB-468, 1.00E-5 Molar one dose
Description: as §1, §2

O=C(NCc1cccc(C(F)(F)F)c1)[C@@H]1CS[C@H]2c3ccccc3C(=O)N12 [4aD]
% FTI [1]: 37%
Growth Percent (RPMI-8226 (Leukemia)): 94.54%
Growth Percent [2]: 85.91%
inhibition at 10 µM [3]: 25%
Growth Percent [3]: 74.73%
Growth Percent (HCC-2998 (Colon Cancer)): 121.37%
Growth Percent (SW-620 (Colon Cancer)): 107.41%
Growth Percent (SF-268 (CNS Cancer)): 96.16%
Growth Percent (SNB-75 (CNS Cancer)): 75.92%
Growth Percent (LOX IMVI (Melanoma)): 100.26%
Growth Percent (MDA-MB-435 (Melanoma)): 107.10%
Growth Percent (SK-MEL-28 (Melanoma)): 108.89%
Growth Percent (UACC-257 melanoma cells): 89.32%
Growth Percent (OVCAR-3 (Ovarian Cancer)): 104.21%
Growth Percent [4]: 92.62%
Growth Percent (SK-OV-3 (Ovarian Cancer)): 88.01%
Growth Percent (CAKI-1 (Renal Cancer)): 97.61%
Growth Percent (SN12C (Renal Cancer)): 98.14%
Growth Percent (TK-10 (Renal Cancer)): 117.52%
Growth Percent (UO-31 renal cancer cells): 78.58%
Growth Percent (PC-3 (Prostate Cancer)): 86.39%
Growth Percent (DU-145 (Prostate Cancer)): 110.52%
Growth Percent (MCF7 (Breast Cancer)): 91.11%
Growth Percent (BT-549 (Breast Cancer)): 92.70%
Growth Percent [5]: 98.77%

O=C(NCc1ccccc1C(F)(F)F)[C@@H]1CS[C@H]2c3ccccc3C(=O)N12 [4aC]
IC50 [1]: 0.594 µM
% FTI [1]: 62%
Growth Percent (RPMI-8226 (Leukemia)): 87.69%
Growth Percent [2]: 87.37%
inhibition at 10 µM [3]: 22%
Growth Percent [3]: 78.18%
Growth Percent (HCC-2998 (Colon Cancer)): 111.38%
Growth Percent (SW-620 (Colon Cancer)): 104.34%
Growth Percent (SF-268 (CNS Cancer)): 93.86%
Growth Percent (SNB-75 (CNS Cancer)): 85.21%
Growth Percent (LOX IMVI (Melanoma)): 102.58%
Growth Percent (MDA-MB-435 (Melanoma)): 102.87%
Growth Percent (SK-MEL-28 (Melanoma)): 99.12%
Growth Percent (UACC-257 melanoma cells): 86.31%
Growth Percent (OVCAR-3 (Ovarian Cancer)): 106.48%
Growth Percent [4]: 99.79%
Growth Percent (SK-OV-3 (Ovarian Cancer)): 85.91%
Growth Percent (CAKI-1 (Renal Cancer)): 97.48%
Growth Percent (SN12C (Renal Cancer)): 101.45%
Growth Percent (TK-10 (Renal Cancer)): 108.86%
Growth Percent (UO-31 renal cancer cells): 74.84%
Growth Percent (PC-3 (Prostate Cancer)): 85.22%
Growth Percent (DU-145 (Prostate Cancer)): 107.34%
Growth Percent (MCF7 (Breast Cancer)): 90.35%
Growth Percent (BT-549 (Breast Cancer)): 96.07%
Growth Percent [5]: 112.27%

O=C(NCc1ccccc1)[C@@H]1CS[C@H]2c3ccccc3C(=O)N12 [4aA]
Growth Percent (RPMI-8226 (Leukemia)): 105.32%
Growth Percent [2]: 97.31%
inhibition at 10 µM [3]: 13%
Growth Percent [3]: 79.32%
Growth Percent (HCC-2998 (Colon Cancer)): 101.83%
Growth Percent (SW-620 (Colon Cancer)): 102.46%
Growth Percent (SF-268 (CNS Cancer)): 90.56%
Growth Percent (SNB-75 (CNS Cancer)): 84.04%
Growth Percent (LOX IMVI (Melanoma)): 97.27%
Growth Percent (MDA-MB-435 (Melanoma)): 106.84%
Growth Percent (SK-MEL-28 (Melanoma)): 110.09%
Growth Percent (UACC-257 melanoma cells): 96.60%
Growth Percent (OVCAR-3 (Ovarian Cancer)): 112.79%
Growth Percent [4]: 99.86%
Growth Percent (SK-OV-3 (Ovarian Cancer)): 102.04%
Growth Percent (CAKI-1 (Renal Cancer)): 94.90%
Growth Percent (SN12C (Renal Cancer)): 98.99%
Growth Percent (TK-10 (Renal Cancer)): 96.56%
Growth Percent (UO-31 renal cancer cells): 91.66%
Growth Percent (PC-3 (Prostate Cancer)): 96.96%
Growth Percent (DU-145 (Prostate Cancer)): 111.90%
Growth Percent (MCF7 (Breast Cancer)): 87.71%
Growth Percent (BT-549 (Breast Cancer)): 93.57%
Growth Percent [5]: 105.86%

COc1ccc(CNC(=O)[C@@H]2CS[C@H]3c4ccccc4C(=O)N23)cc1 [4aF]
IC50 [1]: 2.73 µM
% FTI [1]: 80%
Growth Percent (RPMI-8226 (Leukemia)): 101.90%
Growth Percent [2]: 94.33%
inhibition at 10 µM [3]: 13%
Growth Percent [3]: 87.40%
Growth Percent (HCC-2998 (Colon Cancer)): 114.93%
Growth Percent (SW-620 (Colon Cancer)): 105.03%
Growth Percent (SF-268 (CNS Cancer)): 101.17%
Growth Percent (SNB-75 (CNS Cancer)): 114.38%
Growth Percent (LOX IMVI (Melanoma)): 100.31%
Growth Percent (MDA-MB-435 (Melanoma)): 114.08%
Growth Percent (SK-MEL-28 (Melanoma)): 102.14%
Growth Percent (UACC-257 melanoma cells): 97.39%
Growth Percent (OVCAR-3 (Ovarian Cancer)): 106.29%
Growth Percent [4]: 103.64%
Growth Percent (SK-OV-3 (Ovarian Cancer)): 99.01%
Growth Percent (CAKI-1 (Renal Cancer)): 97.50%
Growth Percent (SN12C (Renal Cancer)): 110.21%
Growth Percent (TK-10 (Renal Cancer)): 105.25%
Growth Percent (UO-31 renal cancer cells): 75.18%
Growth Percent (PC-3 (Prostate Cancer)): 90.27%
Growth Percent (DU-145 (Prostate Cancer)): 116.46%
Growth Percent (MCF7 (Breast Cancer)): 85.78%
Growth Percent (BT-549 (Breast Cancer)): 103.55%
Growth Percent [5]: 122.00%

From article PMC11855478, “Bicyclic N,S-Acetals Containing Fused Cysteine-Amide System as New Heterocyclic Class Targeting Human Farnesyltransferase (FTase-h)” (International Journal of Molecular Sciences, 2025)
